From US11944628B2, “Methods for the use of low-dose immune modulators transiently for treating patients undergoing protein replacement therapy” (Duke University, priority 2017, dated 2024)
“And” between values parts separate entries of the source, which are not always exact repeats. Identical values can stand only once. “Also recorded” adds a separate entry of the source. Like-named read-outs stand apart in the source and are kept apart here. Marks after values point to notes of the source that are not given here.

Experiments:
[1] = system: anti-rhGAA IgG antibodies; experiment: Anti-rhGAA IgG antibody titers over time (ELISA, confirmed by radioimmunoprecipitation) in Pompe disease patients on ERT with TLD-MTX or on ERT monotherapy (comparators); type: in vivo, human; conditions: for Percent of patients in HSAT group: HSAT: titers >=51,200 on >=2 occasions at or beyond 6 months on ERT; for Percent of patients who developed HSAT or SIT: comparator group n=37, TLD-MTX group n=14; for Percent of patients in SIT group: SIT: titers >=12,800 and <51,200 within first year of ERT; for Overall immune tolerance outcome versus historical data: cohort conclusion in words; for Development of HSAT: methotrexate recipients: Example 2 (n=17), Example 3 (n=14, by data cutoff Jun. 16, 2017)
Method: Methotrexate at 0.4 mg/kg body weight was administered subcutaneously (or orally if subcutaneous administration was not possible) on three consecutive days/MTX cycle/infusion; with the first three ERT infusions (i.e., on Days 0, 14, and 28 for patients infused EOW) for a total of 3 cycles. On the day of ERT infusion, methotrexate was administered 15 minutes (if subcutaneous) or 1 hour (if oral) before infusion initiation and again on the following 2 days. To exemplify the schedule, in a patient receiving ERT infusion EOW, methotrexate was administered on Days 0, 1, and 2 (first cycle); Days 14, 15, and 16 (second cycle), and Days 28, 29, and 30 (third cycle). As stated earlier, the dose and frequency of ERT could be increased at the discretion of the treating physician, based on patients' clinical and IAR status, in which case methotrexate cycles were adjusted accordingly (see FIG. 2 for details).
Anti-rhGAA IgG antibodies were determined by Sanofi Genzyme (Framingham, MA, USA) using enzyme-linked immunosorbent assays and confirmed using radioimmunoprecipitation as described previously (Kishnani et al. (2006) J. Pediatr. 149:89-97). Antibody analyses were recommended to be performed at Days −1, 28, 56, 84, 112, 140, 168, 196, 224, 252, 280, 308, 336, and 364.
rhGAA IgG titers were determined over time. Patients were classified into HSAT (≥51,200 on ≥2 occasions at or beyond 6 months on ERT), sustained intermediate titer (SIT) (≥12,800 and <51,200 within the first year of ERT), and low titer (LT; ≤6,400 within the first year of ERT) groups based on the longitudinal anti-rhGAA IgG titers. […] Medians and ranges were determined for baseline, peak, and last titers, although our focus was on longitudinal titers through time because sustained titers affect clinical response.
The comparators received rhGAA alone. The GAA variant data and age at ERT initiation were compared with our cohort of TLD-MTX recipients. Immune responses over time were classified into HSAT, SIT, and LT as defined above, and time to seroconversion, peak titers, titers at Weeks 12, 24, and 52 were compared with our present cohort of TLD-MTX recipients.

[2] = Safety: hematologic and biochemical analyses (ANC, AST, ALT), adverse events and infections in methotrexate recipients; type: in vivo, human; conditions: for Neutropenia (ANC <750 cells/mm^3), percent of patients: transient; for ALT > 3x baseline (Yes/No) / ANC < 750 cells/mm^3 (Yes/No) / AST > 3x baseline (Yes/No): first 6 weeks on alglucosidase alfa
Method: On Days −1 (baseline), 13, 28, 42, 56, 84, 168, 252, 336, and 364, blood samples were recommended to be collected for hematologic and biochemical analyses for patients receiving ERT EOW. The sampling schedule was modified for patients receiving ERT weekly (FIG. 2). Complete and differential blood counts and platelets were evaluated and monitored for platelet counts <50,000/mm^3, ANC <750/mm^3, and treatment-resistant infections. Biochemical analyses monitored alanine aminotransferase (ALT), aspartate aminotransferase (AST), creatine kinase (CK), and CK-MB levels. Post-treatment increases in AST and ALT levels were noted if exceeding three times their respective baseline levels.

anti-rhGAA IgG response = conditions: methotrexate alone, transient low dose co-initiated with ERT, Joseph et al. (2008); cited from earlier work
[3] = system: anti-rhGAA IgG antibodies; conditions: LOTS, cited from earlier work
[4] = system: anti-rhGAA IgG antibodies; conditions: 10 LOPD patients, 4 years, annual titers; cited from earlier work
[5] = system: anti-rhGAA IgG antibodies; conditions: cited from earlier work
[6] = LT group, IOPD, seropositive titers <100 deemed 50
[7] = individual SIT patients IOPD13 and IOPD14 (patient named in the cell), listed as TLD-MTX
[8] = individual atypical IOPD patients

Compound: CN(Cc1cnc2nc(N)nc(N)c2n1)c1ccc(C(=O)N[C@@H](CCC(=O)O)C(=O)O)cc1 [methotrexate]
- Median last titer ([1]; 17 CRIM-positive IOPD, atypical IOPD and LOPD methotrexate recipients (Example 2), median ~68 weeks on alglucosidase alfa): 100 (range, 0-6400) and 100 (range 0-6400)
- Patients remaining seronegative ([1]; Example 2 cohort of 17 patients): 1 of 17
- Highest observed titer in the study ([1]; Example 2 cohort, IOPD patient (Patient 3) given one methotrexate dose each in cycles 2 and 3): 12,800
- Percent of patients in HSAT group ([1]; IOPD): 0%
- Titer ([1]; IOPD Patient 3, Week 49): 400
- Titer ([1]; IOPD Patient 3, by Week 20): 3200
- Percent of patients who developed HSAT or SIT ([1]; IOPD): 14.2%
- Median peak titers ([1]; LT group, IOPD): 3,200
- Median titers (Week 12) ([1]; LT group, IOPD): 1,600
- Median titers (Week 24) ([1]; LT group, IOPD): 600
- Median titers (Week 52) [1, 6]: 250***
- Percent of patients in SIT group ([1]; IOPD): 14.2% (n = 2)
- Overall immune tolerance outcome versus historical data ([1]; listed as TLD-MTX): successfully blunted the immune response overall
- Overall immune tolerance outcome versus historical data ([1]; listed as low-dose methotrexate): successfully induced immune tolerance
- Peak antibody titer since immune tolerance induction ([1]; individual IOPD patients (one line per patient), >6 months follow-up, methotrexate 0.4 mg/kg, 3 cycles, with alglucosidase alfa): 3,200 (3×) and <100 and 200 and 800 (3×) and 6,400
- Peak antibody titer since immune tolerance induction ([1]; individual IOPD patients (one line per patient), >6 months follow-up, methotrexate 0.4 mg/kg, 3 cycles, with alglucosidase alfa, single methotrexate dose in cycles 2 and 3): 12,800*
- Last antibody titer ([1]; individual IOPD patients (one line per patient), last titer at 42-122 weeks on ERT): 0 (4×) and 400 and <100 and 100 (2×) and 6,400
- Last antibody titer ([1]; individual IOPD patients (one line per patient), last titer at 42-122 weeks on ERT, single methotrexate dose in cycles 2 and 3): 400
- Peak antibody titer ([1]; individual IOPD patients IOPD1-IOPD14 (one line per patient) on TLD-MTX protocol, >6 months follow-up): 12,800* and 3,200 (4×) and 200 (2×) and 800 (3×) and 6,400 and 51,200** and 25,600*** and <100
- Last antibody titer ([1]; individual IOPD patients IOPD1-IOPD14 on TLD-MTX protocol, last titer at 32-122 weeks on ERT): 400 (3×) and 0 (4×) and <100 and 100 (2×) and 6,400 and 200 and 12,800 and 12.800
- Peak antibody titer since immune tolerance induction ([1]; individual LOPD patients (one line per patient), >6 months follow-up): 1,600 and 800
- Last antibody titer ([1]; individual LOPD patients, last titer at 63 and 27 weeks on ERT): 0 and 400
- Titer (Week 52) ([1]; individual SIT patient IOPD13): IOPD13: 12,800
- Peak titer [1, 7]: IOPD13: 51,200;; also recorded: IOPD14: 12,800
- Titer (Week 12) [1, 7]: IOPD13: 12,800;; also recorded: IOPD14: 25,600
- Titer (Week 24) [1, 7]: IOPD13: 12,800;; also recorded: IOPD14: 12,800
- Peak antibody titer since immune tolerance induction ([1]; individual atypical IOPD patients (one line per patient), >6 months follow-up): 3,200 and Never and <100 and 800 and 200
- Last antibody titer ([1]; individual atypical IOPD patients, last titer at 58-145 weeks on ERT): 400 and 0 and <100 and 200 (2×)
- Peak antibody titer, median ([1]; median of 14 IOPD patients on TLD-MTX protocol): 3,200
- Last antibody titer, median ([1]; median of 14 IOPD patients on TLD-MTX protocol, median time on ERT ~71 weeks): 150 (range, 0-12,800)
- Development of HSAT [1]: No patients who received methotrexate developed HSAT; also recorded: No methotrexate recipients developed HSAT
- Development of HSAT ([1]; listed as TLD-MTX): No patients who received TLD-MTX developed HSAT
- Maximal titer ([1]; one methotrexate-treated LOPD patient, Weeks 16 and 20): 1,600
- Titers remaining (seropositive on screening assay, below limit of titer measurement) ([1]; patient IOPD2): < 100
- Titer ([1]; patient IOPD13, Week 7 only): 51,200
- Peak titer after the cutoff date (HSAT developed) ([1]; patient IOPD13, Week 76): 102,400
- Titer ([1]; patient IOPD13, Weeks 12 and 37): 25,600
- Titer ([1]; patient IOPD13, Weeks 14, 17, 23, 31 and 44): 12,800
- Titer ([1]; patient IOPD14, Week 28 only): 25,600
- Last titer after the cutoff for data collection ([1]; patient IOPD14, Week 36): 6,400
- Titer ([1]; patient IOPD14, Weeks 12, 16, 24 and 32): 12,800
- Titer ([1]; same LOPD patient, Week 63): 0
- Titer ([1]; same LOPD patient, Weeks 32-55): 100
- Titer ([1]; the other LOPD patient, Week 27): 400
- Maximal titer ([1]; the other methotrexate-treated LOPD patient, Weeks 9-16): 800
- Neutropenia (ANC <750 cells/mm^3), percent of patients ([2]; 2 of 9 IOPD patients with ANC data (Example 2)): 22%
- Neutropenia (ANC <750 cells/mm^3), percent of patients ([2]; 2 of 13 IOPD patients with ANC data (Example 3)): 15.4%
- ALT > 3x baseline (Yes/No) ([2]; individual IOPD patients): Yes (3×) and No (5×)
- ANC < 750 cells/mm^3 (Yes/No) ([2]; individual IOPD patients): Yes (2×) and No (7×)
- AST > 3x baseline (Yes/No) ([2]; individual IOPD patients): No (7×) and Yes
- ALT > 3x baseline (Yes/No) ([2]; individual LOPD patients): No
- ANC < 750 cells/mm^3 (Yes/No) ([2]; individual LOPD patients): No
- AST > 3x baseline (Yes/No) ([2]; individual LOPD patients): No
- ALT > 3x baseline (Yes/No) [2, 8]: No
- ANC < 750 cells/mm^3 (Yes/No) [2, 8]: No
- AST > 3x baseline (Yes/No) [2, 8]: No
- Overall tolerability ([2]; methotrexate recipients): tolerated the methotrexate protocol reasonably
- Serious AEs related to methotrexate ([2]; methotrexate recipients): No serious AEs were related to methotrexate
- Patients with hospitalizations related to infections around the time of methotrexate administration ([2]; patients with infection data available (Example 3), resolved): Two of nine
- Effect on anti-rhGAA IgG response (anti-rhGAA IgG response): sustainably reduced anti-rhGAA IgG response

Compound: Alglucosidase alfa [ERT monotherapy]
- Range of peak titers ([1]; HSAT comparators (5/37)): 51,200-409,600
- Group median last titer ([1]; HSAT group of 37 CRIM-positive IOPD comparators, median time on ERT Week 94): 102,400
- Median peak titers ([1]; HSAT group, IOPD): 204,800 (range, 51,200-409,600)
- Median titers (Week 12) ([1]; HSAT group, IOPD): 25,600
- Median titers (Week 24) ([1]; HSAT group, IOPD): 25,600
- Median titers (Week 52) ([1]; HSAT group, IOPD): 51,200
- Seroconversion week (median time to seroconversion) ([1]; HSAT group, IOPD): ≤ 4 weeks
- Percent of patients in HSAT group ([1]; IOPD): 13.5%
- Percent of patients who developed HSAT or SIT ([1]; IOPD): 32.4%
- Range of peak titers ([1]; LT comparators (23/37 as printed)): 200-12,800
- Group median last titer ([1]; LT group of 37 CRIM-positive IOPD comparators, median time on ERT Week 130): 400
- Median peak titers ([1]; LT group, IOPD): 800 (range, 200-12,800)
- Median titers (Week 12) ([1]; LT group, IOPD): 400
- Median titers (Week 24) ([1]; LT group, IOPD): 400
- Seroconversion week (median time to seroconversion) ([1]; LT group, IOPD): 8 weeks
- Median titers (Week 52) [1, 6]: 200
- Percent of patients in LT group ([1]; LT: titers <=6,400 within first year of ERT, IOPD): 67.6%
- Range of peak titers ([1]; SIT (IT) comparators (7/37)): 12,800-51,000
- Group median last titer ([1]; SIT group of 37 CRIM-positive IOPD comparators, median time on ERT Week 104): 1,600
- Median peak titers ([1]; SIT group, IOPD): 25,600 (range, 12,800-51,200)
- Median titers (Week 12) ([1]; SIT group, IOPD): 12,800
- Median titers (Week 24) ([1]; SIT group, IOPD): 12,800
- Median titers (Week 52) ([1]; SIT group, IOPD): 3,200
- Seroconversion week (median time to seroconversion) ([1]; SIT group, IOPD): 4 weeks
- Percent of patients in SIT group ([1]; IOPD): 18.9%
- Geometric mean titer, maximum ([3]; LOPD, Week 44): 2,925
- Geometric mean titer, last ([3]; LOPD, Week 78): 1,607
- Median last titer ([3]; LOPD, Week 78): 1,600
- Median peak titer ([3]; LOPD, median time 12 weeks of alglucosidase alfa therapy): 6,400
- Peak IgG titer quartile ([3]; first quartile (n=17)): 200-1,600
- Peak IgG titer quartile ([3]; fourth quartile (n=14)): 25,600-819,200
- Peak IgG titer quartile ([3]; second quartile (n=12)): 3,200
- Peak IgG titer quartile ([3]; third quartile (n=16)): 6,400-12,800
- Highest antibody titer of any patient [4]: ≤ 25,600
- Percent of patients with high antibody titers ([5]; CRIM-positive IOPD, 9 of 23, Banugaria et al. (2011)): 39%
- Percent of patients developing HSAT ([5]; CRIM-positive patients with IOPD): ~40%
- Percent of patients developing HSAT ([5]; patients with LOPD): 10%
